Source: US7365080B2, “Pharmaceutical compositions comprising thieno[2,3-c]pyridine derivatives and use thereof” (Rimonyx Pharmaceuticals Ltd., priority 2003, dated 2008)
pIC50: −log10 of the molar value.

Each compound was assayed on Human T-lymphocytes on human endothelial cells (assay: T-lymphocyte rolling on endothelial cells under shear flow). Conditions: Homo sapiens; 25 μM; high shear flow; read-out: inhibition of cell rolling.
Type: cell-based
Procedure: Human T-lymphocytes were passed over a layer of human endothelial cells according to the method of Lawrence and Springer (Cell 65: 859-873, 1991). At high shear flow, migrating T-lymphocytes adhered transiently and intermittently to the endothelial cells as a consequence of HS-GAG-ECAM interaction. The resulting T-cell rolling was recorded by video camera and the number of rolling cells per defined area during a constant period of time was determined. Soluble heparin (competitor of cell surface GAGs) abolished T-cell rolling under high shear flow conditions. Compounds no. 1, 11 and 25, each at 25 μM, inhibited cell rolling by 90, 90 and 70%, respectively.

| Compound | inhibition at 25 µM [%] |
| --- | --- |
| CC1(C)Cc2c(sc(NC(=O)c3ccc(S(=O)(=O)N4CCCc5ccccc54)cc3)c2C(N)=O)C(C)(C)N1 [Compound 25] | 70 |

Same assay, conditions: test compound (25 μM); shear flow

| Compound | % rolling [%] |
| --- | --- |
| CC1(C)Cc2c(sc(NC(=O)c3ccc(S(=O)(=O)N4CCCc5ccccc54)cc3)c2C(N)=O)C(C)(C)N1 [Compound 25] | <10 |

These compounds were tested against T1, L-Selectin (Homo sapiens, UniProt P14151) (assay: ELISA: inhibition of L-selectin/IgG binding to immobilized heparin (Heparin-BSA)). Conditions: L-Selectin binding to heparin.
T1 construct: purchased Research and Development Systems 728-LS
T1 sequence (P14151 39-332 limits assumed): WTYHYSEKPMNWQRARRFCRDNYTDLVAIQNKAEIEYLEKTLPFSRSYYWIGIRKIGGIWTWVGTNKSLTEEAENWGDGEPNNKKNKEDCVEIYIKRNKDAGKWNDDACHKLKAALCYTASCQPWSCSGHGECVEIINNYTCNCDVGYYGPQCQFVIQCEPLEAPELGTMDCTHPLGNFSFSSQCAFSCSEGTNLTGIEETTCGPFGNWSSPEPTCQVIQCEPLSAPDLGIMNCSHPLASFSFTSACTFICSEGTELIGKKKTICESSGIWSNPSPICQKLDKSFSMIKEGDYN
Procedure: The inhibitory effect of the compounds of the present invention can be evaluated by several methods in vitro. One assay for measuring GAG-ECAM binding, exemplified herein below, detects the binding of L selectin/IgG to immobilized heparin. Another assay utilizes immobilized L-selectin, or L-selectin fused to protein domains other than IgG. The amount of bound L-selectin is determined by an ELISA assay using, for example, a monoclonal antibody raised against L-selectin, which is conjugated to horseradish peroxidase. […] The Dregg-55 antibody was also shown to inhibit L-selectin-dependent adhesion in vitro, neutrophil accumulation in vitro and inflammation in vivo (Co M. S. et al, Immunotechnology 493: 253-266, 1999).
An in vitro assay was used to assess the ability of test compounds according to formula I to inhibit the interactions of L-selectin with HS-GAGs. The assay was suitable for determining the concentration required for 50% inhibition (IC-50) for each specific compound. In the assay, the GAG used was heparin. Thus, porcine intestinal mucosa heparin conjugated to Bovine Serum Albumin (Heparin-BSA; Sigma Cat. No. H0403) at […] in Phosphate Buffered Saline (PBS; pH 6.5) was added to a 96 well polystyrene ELISA plate (NUNC Cat. No. 442404; 0.1 ml per well) and incubated Over Night (ON) at 4° C. Following the incubation, the plate was washed thoroughly, by immersion, with de-ionized water and PBS (pH 6.5). The ELISA plate was then blocked with BSA (ICN Cat. No.160069, 3%, 200 μl per well) for 1 hour at Room Temperature (RT). Following blocking, the plate was washed with de-ionized water, and then with PBS (pH 6.5) containing Tween 20 (Sigma Cat. No. P-1379, 0.05%). Compounds were synthesized or purchased from ChemDiv Labs (San Diego, Calif.), dissolved in DMSO, diluted in PBS and added to the wells at various concentrations in the range of 0.01 to 300 μM. Recombinant Human L-Selectin/IgG (Research and Development Systems Cat. No.728-LS) dissolved in PBS supplemented with BSA (0.1%) and calcium chloride (1 mM) was added to the ELISA plate (100 μl per well) and incubated for 60 minutes at RT with shaking. Following incubation, the plate was washed with de-ionized water and three times with PBS (pH 6.5) containing Tween 20. Anti-Human IgG Peroxidase Conjugate (1:5000; Sigma Product No. A8667) diluted in PBS supplemented with BSA (0.1%) and calcium chloride (1 mM) was added to the ELISA plate (100 μl per well) and incubated for 30 minutes at RT with shaking. The plate was then washed with de-ionized water and three times with PBS (pH 6.5) containing Tween 20. The peroxidase substrate cromogen, TMB (Dako Cat. No. S1599) was added (100 μl per well) to the ELISA plate and incubated at room temperature. After 15 minutes ELISA Stop Solution (hydrochloric acid 1N, sulfuric acid 3N) was added (200 μl per well) to stop the peroxidase catalyzed colorimetric reaction. The Optical Density (OD) of the samples was measured at 450 nm using an ELISA plate reader (Dynatech MR5000). Data were analyzed with Graphpad Prism software and IC-50 values were established. The P-selectin assay was carried out in a similar fashion, except that Recombinant Human P-Selectin/IgG (Research and Development Systems Cat.No.137-PS) was used.

| pIC50 | Compound |
| --- | --- |
| 4.44 | CN(C1CCCCC1)S(=O)(=O)c1ccc(C(=O)Nc2sc3c(c2C(N)=O)CC(C)(C)NC3(C)C)cc1 [Compound 21] |
| 5.05 | CCN1CCc2c(sc(NC(=O)c3ccc(S(=O)(=O)N(C)c4ccccc4)cc3)c2C(=O)NC)C1 [Compound 27] |
| 4.96 | CCOC(=O)c1c(NC(=O)c2ccc(S(=O)(=O)N3CCCCCC3)cc2)sc2c1CC(C)(C)NC2(C)C [Compound 18] |
| 4.96 | CCOC(=O)c1c(NC(=O)c2ccc(S(=O)(=O)N3CCCc4ccccc43)cc2)sc2c1CCN(C(C)C)C2 [Compound 16] |
| 4.59 | CCOC(=O)c1c(NC(=O)c2ccc(S(=O)(=O)N(CC)CC)cc2)sc2c1CC(C)(C)NC2(C)C [Compound 20] |
| 4.60 | CC(C)N1CCc2c(sc(NC(=O)c3ccc(S(=O)(=O)N4CCOCC4)cc3)c2-c2nc3ccccc3s2)C1 [Compound 10] |
| 4.37 | C=CCN(CC=C)S(=O)(=O)c1ccc(C(=O)Nc2sc3c(c2C(=O)OC)CC(C)(C)NC3(C)C)cc1 [Compound 19] |
| 5.00 | CCN(CC)S(=O)(=O)c1ccc(C(=O)Nc2sc3c(c2-c2nc4ccccc4s2)CCN(C(C)C)C3)cc1 [Compound 3] |
| 4.92 | CC1(C)Cc2c(sc(NC(=O)c3ccc(S(=O)(=O)N4CCCc5ccccc54)cc3)c2C(N)=O)C(C)(C)N1 [Compound 25] |

Same assay, conditions: L-Selectin binding to heparin; 50 μM

| inhibition at 50 µM [%] | Compound |
| --- | --- |
| 24 | CC(C)N1CCc2c(sc(NC(=O)c3ccc(S(=O)(=O)N4CCCCC4C)cc3)c2-c2nc3ccccc3s2)C1 (stereo not shown) [Compound 45] |
| 55 | CCCCN(CC)S(=O)(=O)c1ccc(C(=O)Nc2sc3c(c2C(N)=O)CCN(C(C)C)C3)cc1 [Compound 12] |
| 17 | C=CCN(CC=C)S(=O)(=O)c1ccc(C(=O)Nc2sc3c(c2-c2nc4ccccc4s2)CCN(C(C)C)C3)cc1 [Compound 43] |
| 39 | CCCCN(C)S(=O)(=O)c1ccc(C(=O)Nc2sc3c(c2C(N)=O)CC(C)(C)NC3(C)C)cc1 [Compound 23] |
| 26 | CCCCN(C)S(=O)(=O)c1ccc(C(=O)Nc2sc3c(c2-c2nc4ccccc4s2)CCN(C)C3)cc1 [Compound 32] |
| 21 | CCOC(=O)c1c(NC(=O)c2ccc(S(=O)(=O)N3CCN(C(=O)OCC)CC3)cc2)sc2c1CCN(C(C)C)C2 [Compound 17] |
| 27 | CCCCN(CCCC)S(=O)(=O)c1ccc(C(=O)Nc2sc3c(c2-c2nc4ccccc4s2)CCN(C)C3)cc1 [Compound 31] |
| 23 | CC1CCCN(S(=O)(=O)c2ccc(C(=O)Nc3sc4c(c3-c3nc5ccccc5s3)CCN(C)C4)cc2)C1 (stereo not shown) [Compound 37] |
| 24 | CC1CC(C)CN(S(=O)(=O)c2ccc(C(=O)Nc3sc4c(c3-c3nc5ccccc5s3)CCN(C)C4)cc2)C1 (stereo not shown) [Compound 39] |
| 43 | COCCN(CCOC)S(=O)(=O)c1ccc(C(=O)Nc2sc3c(c2-c2nc4ccccc4s2)CCN(C)C3)cc1 [Compound 4] |
| 26 | CN1CCc2c(sc(NC(=O)c3ccc(S(=O)(=O)N4CCCCC4)cc3)c2-c2nc3ccccc3s2)C1 [Compound 36] |
| 27 | CCCCN(CC)S(=O)(=O)c1ccc(C(=O)Nc2sc3c(c2-c2nc4ccccc4s2)CCN(C(C)C)C3)cc1 [Compound 42] |
| 46 | CCN1CCc2c(sc(NC(=O)c3ccc(S(=O)(=O)N4CCCCCC4)cc3)c2-c2nc3ccccc3s2)C1 [Compound 8] |
| 25 | C=CCN(CC=C)S(=O)(=O)c1ccc(C(=O)Nc2sc3c(c2-c2nc4ccccc4s2)CCN(CC)C3)cc1 [Compound 41] |
| 29 | CC(C)N1CCc2c(sc(NC(=O)c3ccc(S(=O)(=O)N4CCCCC4)cc3)c2-c2nc3ccccc3s2)C1 [Compound 44] |
| 21 | CCCN(CCC)S(=O)(=O)c1ccc(C(=O)Nc2sc3c(c2-c2nc4ccccc4s2)CCN(C)C3)cc1 [Compound 30] |

| inhibition at 50 µM [%] | Compound |
| --- | --- |
| 68 | CC(C)N1CCc2c(sc(NC(=O)c3ccc(S(=O)(=O)N(C)c4ccccc4)cc3)c2C(N)=O)C1 [Compound 13] |
| 35 | CC1CC(C)CN(S(=O)(=O)c2ccc(C(=O)Nc3sc4c(c3C(N)=O)CCN(C(C)C)C4)cc2)C1 (stereo not shown) [Compound 14] |
| 33 | CC1CCN(S(=O)(=O)c2ccc(C(=O)Nc3sc4c(c3-c3nc5ccccc5s3)CCN(C)C4)cc2)CC1 [Compound 38] |
| 23 | COCCN(CCOC)S(=O)(=O)c1ccc(C(=O)Nc2sc3c(c2C(N)=O)CC(C)(C)NC3(C)C)cc1 [Compound 26] |
| 60 | CCN(CC)S(=O)(=O)c1ccc(C(=O)Nc2sc3c(c2-c2nc4ccccc4s2)CCN(C)C3)cc1 [Compound 2] |
| 35 | CCN(CC)S(=O)(=O)c1ccc(C(=O)Nc2sc3c(c2C(N)=O)CC(C)(C)NC3(C)C)cc1 [Compound 22] |
| 24 | CN1CCc2c(sc(NC(=O)c3ccc(S(=O)(=O)N4CCCC4)cc3)c2-c2nc3ccccc3s2)C1 [Compound 35] |
| 52 | CN1CCc2c(sc(NC(=O)c3ccc(S(=O)(=O)N4CCOCC4)cc3)c2-c2nc3ccccc3s2)C1 [Compound 9] |
| 40 | CCCCN(C)S(=O)(=O)c1ccc(C(=O)Nc2sc3c(c2C(=O)OCC)CCN(C(C)C)C3)cc1 [Compound 15] |
| 44 | CN1CCc2c(sc(NC(=O)c3ccc(S(=O)(=O)N(C)c4ccccc4)cc3)c2-c2nc3ccccc3s2)C1 [Compound 6] |
| 63 | CCN1CCc2c(sc(NC(=O)c3ccc(S(=O)(=O)N(CC)Cc4ccccc4)cc3)c2C(N)=O)C1 [Compound 28, 2-[[4-[[ethyl(phenylmethyl)amino]sulfonyl]benzoyl]amino]-6-ethyl-4,5,6,7-tetrahydrothieno[2,3-c]pyridine-3-carboxamide] |
| 25 | CCCN(CCC)S(=O)(=O)c1ccc(C(=O)Nc2sc3c(c2-c2nc4ccccc4s2)CCN(CC)C3)cc1 [Compound 40] |
| 25 | C=CCN(CC=C)S(=O)(=O)c1ccc(C(=O)Nc2sc3c(c2-c2nc4ccccc4s2)CCN(C)C3)cc1 [Compound 34] |
| 21 | CCCCN(CC)S(=O)(=O)c1ccc(C(=O)Nc2sc3c(c2-c2nc4ccccc4s2)CCN(C)C3)cc1 [Compound 33] |
| 30 | CCN1CCc2c(sc(NC(=O)c3ccc(S(=O)(=O)N4CCN(C)CC4)cc3)c2C(N)=O)C1 [Compound 29, 2-[[4-[(4-methyl-1-piperazinyl)sulfonyl]benzoyl]amino]-6-ethyl-4,5,6,7-tetrahydrothieno[2,3-c]pyridine-3-carboxamide] |
| 29 | CCOC(=O)N1CCN(S(=O)(=O)c2ccc(C(=O)Nc3sc4c(c3C(N)=O)CC(C)(C)NC4(C)C)cc2)CC1 [Compound 24] |
